Data taken from paper PMC11191095, “QSAR Reveals Decreased Lipophilicity of Polar Residues Determines the Selectivity of Antimicrobial Peptide Activity” (ACS Omega, 2024).
Where a SMILES comes first, the peptide text is derived from it.

Experiments:
Assay in all cases: microbe, parasite or virus in culture
[1] = tested on: S. aureus (MRSA) USA300; assay type: cell-based, Staphylococcus aureus; conditions: S. aureus (MRSA) USA300 (R)
Summary of the method: (§1)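 Peptides 128→2 μg/mL, 2-fold series; inoculum ~5 × 10^5 CFU/mL from overnight culture (OD600 0.01, mixed 1:1). MHB non-cation-adjusted for bacteria, RPMI 1640 + 2% glucose for fungi. 37 °C, 20 h, OD600. MIC50/MIC90 at 50%/90% inhibition; n ≥ 3.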

[2] = tested on: S. aureus (MRSA) 1199B; assay type: cell-based, Staphylococcus aureus; conditions: S. aureus (MRSA) 1199B (R)
Summary of the method: as §1

[3] = tested on: S. aureus (MSSA) ATCC 9144; assay type: cell-based, Staphylococcus aureus; conditions: S. aureus (MSSA) ATCC 9144 (S)
Summary of the method: as §1

[4] = tested on: S. aureus (MRSA) NCTC 13616; assay type: cell-based, Staphylococcus aureus; conditions: S. aureus (MRSA) NCTC 13616 (R)
Summary of the method: as §1

[5] = tested on: K. pneumoniae M6; assay type: cell-based, Klebsiella pneumoniae; conditions: K. pneumoniae M6 (S)
Summary of the method: as §1

[6] = tested on: K. pneumoniae NCTC 13368; assay type: cell-based, Klebsiella pneumoniae; conditions: K. pneumoniae NCTC 13368 (R)
Summary of the method: as §1

[7] = tested on: C. auris TDG 1912; assay type: cell-based, Candida auris; conditions: C. auris TDG 1912
Summary of the method: as §1

[8] = tested on: C. albicans NCPF 3281; assay type: cell-based; conditions: C. albicans NCPF 3281
Summary of the method: as §1

[9] = tested on: C. tropicalis NCPF 8760; assay type: cell-based; conditions: C. tropicalis NCPF 8760
Summary of the method: as §1

[10] = tested on: C. parapsilosis NCPF 3209; assay type: cell-based; conditions: C. parapsilosis NCPF 3209
Summary of the method: as §1

[11] = tested on: C. krusei NCPF 3876; assay type: cell-based; conditions: C. krusei NCPF 3876
Summary of the method: as §1

[12] = tested on: C. glabrata NCPF 8018; assay type: cell-based; conditions: C. glabrata NCPF 8018
Summary of the method: as §1

[13] = tested on: E. coli NCTC 12923; assay type: cell-based, Escherichia coli; conditions: E. coli NCTC 12923 (S)
Summary of the method: as §1

[14] = tested on: E. coli LEC001; assay type: cell-based, Escherichia coli; conditions: E. coli LEC001 (R)
Summary of the method: as §1

[15] = tested on: A. baumannii ATCC 17978; assay type: cell-based, Acinetobacter baumannii; conditions: A. baumannii ATCC 17978 (S)
Summary of the method: as §1

[16] = tested on: A. baumannii AYE; assay type: cell-based, Acinetobacter baumannii; conditions: A. baumannii AYE (R)
Summary of the method: as §1

[17] = MHB, 37 °C, 20 h, OD600, min. three biological repeats
[18] = 50% growth inhibition, RPMI 1640 + 2% glucose, 37 °C, 20 h, OD600
[19] = 90% growth inhibition, RPMI 1640 + 2% glucose, 37 °C, 20 h, OD600
[20] = 50% growth inhibition, RPMI 1640 + 2% glucose, 37 °C, 20 h
[21] = 90% growth inhibition, RPMI 1640 + 2% glucose, 37 °C, 20 h
[22] = MHB, ~5×10^5 CFU/mL, 37 °C, 20 h, OD600, min. three biological repeats

With `C[C@H](NC(=O)CNC(=O)[C@H](CCCCN)NC(=O)[C@@H](N)CS)C(=O)N[C@@H](Cc1ccccc1)C(=O)N[C@@H](CCCCN)C(=O)N[C@@H](CCC(N)=O)C(=O)N[C@H](C(=O)N[C@@H](CS)C(=O)N[C@@H](CCCCN)C(=O)N[C@@H](CS)C(=O)N[C@@H](Cc1ccc(O)cc1)C(N)=O)[C@@H](C)O` [Os(11-22)a] (H-CKGAFKQTCKCY-NH2; N-terminus assumed) as the molecule, how does the “Modal MIC” value [1, 17] read?
Its value is over 128 µg/mL.

And the “Modal MIC” value ([1]; shown in µM)?
The value was over 91.7 µM.

And the “Modal MIC” value [2, 17]?
The value was over 128 µg/mL.

And the “Modal MIC” value ([2]; shown in µM)?
Its value is over 91.7 µM.

What about the “Modal MIC” value [3, 17] of the same molecule?
Its value is over 128 µg/mL.

What about the “Modal MIC” value ([3]; shown in µM) of the same molecule?
The value was over 91.7 µM.

What about the “Modal MIC” value [4, 17] of the same molecule?
The value was over 128 µg/mL.

What about the “Modal MIC” value ([4]; shown in µM) of the same molecule?
Its value is over 91.7 µM.

What about the “Modal MIC” value [5, 17] of the same molecule?
Its value is over 128 µg/mL.

What about the “Modal MIC” value ([5]; shown in µM) of the same molecule?
Its value is over 91.7 µM.

And the “Modal MIC” value [6, 17]?
The value was over 128 µg/mL.

What about the “Modal MIC” value ([6]; shown in µM) of the same molecule?
Its value is over 91.7 µM.

What about the “Modal MIC50” value [7, 18] of the same molecule?
The value was over 128 µg/mL.

What about the “Modal MIC90” value [7, 19] of the same molecule?
Its value is over 128 µg/mL.

What about the “Modal MIC50” value ([7]; shown in µM) of the same molecule?
The value was over 91.7 µM.

What about the “Modal MIC90” value ([7]; shown in µM) of the same molecule?
The value was over 91.7 µM.

What about the “Modal MIC50” value [8, 20] of the same molecule?
The value was over 128 µg/mL.

What about the “Modal MIC90” value [8, 21] of the same molecule?
Its value is over 128 µg/mL.

And the “Modal MIC50” value ([8]; shown in µM)?
Its value is over 91.7 µM.

What about the “Modal MIC90” value ([8]; shown in µM) of the same molecule?
Its value is over 91.7 µM.

And the “Modal MIC50” value [9, 20]?
Its value is over 128 µg/mL.

And the “Modal MIC90” value [9, 21]?
Its value is over 128 µg/mL.

And the “Modal MIC50” value ([9]; shown in µM)?
The value was over 91.7 µM.

What about the “Modal MIC90” value ([9]; shown in µM) of the same molecule?
The value was over 91.7 µM.

What about the “Modal MIC50” value [10, 20] of the same molecule?
The value was over 128 µg/mL.

And the “Modal MIC90” value [10, 21]?
Its value is over 128 µg/mL.

And the “Modal MIC50” value ([10]; shown in µM)?
Its value is over 91.7 µM.

And the “Modal MIC90” value ([10]; shown in µM)?
The value was over 91.7 µM.

What about the “Modal MIC50” value [11, 20] of the same molecule?
The value was over 128 µg/mL.

And the “Modal MIC90” value [11, 21]?
The value was over 128 µg/mL.

What about the “Modal MIC50” value ([11]; shown in µM) of the same molecule?
The value was over 91.7 µM.

And the “Modal MIC90” value ([11]; shown in µM)?
The value was over 91.7 µM.

What about the “Modal MIC50” value [12, 20] of the same molecule?
Its value is over 128 µg/mL.

What about the “Modal MIC90” value [12, 21] of the same molecule?
Its value is over 128 µg/mL.

And the “Modal MIC50” value ([12]; shown in µM)?
Its value is over 91.7 µM.

What about the “Modal MIC90” value ([12]; shown in µM) of the same molecule?
The value was over 91.7 µM.

And the “Modal MIC” value [13, 22]?
Its value is over 128 µg/mL.

What about the “Modal MIC” value ([13]; shown in µM) of the same molecule?
The value was over 91.7 µM.

What about the “Modal MIC” value [14, 17] of the same molecule?
Its value is over 128 µg/mL.

And the “Modal MIC” value ([14]; shown in µM)?
Its value is over 91.7 µM.

And the “Modal MIC” value [15, 17]?
Its value is over 128 µg/mL.

What about the “Modal MIC” value ([15]; shown in µM) of the same molecule?
Its value is over 91.7 µM.

What about the “Modal MIC” value [16, 17] of the same molecule?
Its value is over 128 µg/mL.

What about the “Modal MIC” value ([16]; shown in µM) of the same molecule?
The value was over 91.7 µM.

With `CC[C@H](C)[C@H](NC(=O)CNC(=O)[C@@H](N)CCCCN)C(=O)N[C@@H](CCCNC(=N)N)C(=O)NCC(=O)N[C@@H](Cc1ccc(O)cc1)C(=O)N[C@@H](CCCCN)C(=O)NCC(=O)NCC(=O)N[C@@H](Cc1ccc(O)cc1)C(=O)N[C@@H](CS)C(=O)N[C@@H](CCCCN)C(=O)NCC(=O)N[C@@H](C)C(=O)N[C@@H](Cc1ccccc1)C(=O)N[C@@H](CCCCN)C(=O)N[C@@H](CCC(N)=O)C(=O)N[C@H](C(=O)N[C@@H](CS)C(=O)N[C@@H](CCCCN)C(=O)N[C@@H](CS)C(=O)N[C@@H](Cc1ccc(O)cc1)C(=O)O)[C@@H](C)O` [Os] (H-KGIRGYKGGYCKGAFKQTCKCY-OH; N-terminus and C-terminus assumed) as the molecule, how does the “Modal MIC” value [1, 17] read?
The value was over 128 µg/mL.

What about the “Modal MIC” value ([1]; shown in µM) of the same molecule?
The value was over 51.7 µM.

And the “Modal MIC” value [2, 17]?
The value was over 128 µg/mL.

What about the “Modal MIC” value ([2]; shown in µM) of the same molecule?
Its value is over 51.7 µM.

What about the “Modal MIC” value [3, 17] of the same molecule?
Its value is over 128 µg/mL.

What about the “Modal MIC” value ([3]; shown in µM) of the same molecule?
Its value is over 51.7 µM.

What about the “Modal MIC” value [4, 17] of the same molecule?
Its value is over 128 µg/mL.

What about the “Modal MIC” value ([4]; shown in µM) of the same molecule?
The value was over 51.7 µM.

What about the “Modal MIC” value [5, 17] of the same molecule?
The value was over 128 µg/mL.

And the “Modal MIC” value ([5]; shown in µM)?
The value was over 51.7 µM.

And the “Modal MIC” value [6, 17]?
The value was over 128 µg/mL.

What about the “Modal MIC” value ([6]; shown in µM) of the same molecule?
The value was over 51.7 µM.

And the “Modal MIC50” value [7, 18]?
Its value is over 128 µg/mL.

And the “Modal MIC90” value [7, 19]?
Its value is over 128 µg/mL.

And the “Modal MIC50” value ([7]; shown in µM)?
Its value is over 51.7 µM.

What about the “Modal MIC90” value ([7]; shown in µM) of the same molecule?
The value was over 51.7 µM.

And the “Modal MIC50” value [8, 20]?
The value was over 128 µg/mL.

And the “Modal MIC90” value [8, 21]?
Its value is over 128 µg/mL.

And the “Modal MIC50” value ([8]; shown in µM)?
Its value is over 51.7 µM.

And the “Modal MIC90” value ([8]; shown in µM)?
The value was over 51.7 µM.

And the “Modal MIC50” value [9, 20]?
The value was over 128 µg/mL.

And the “Modal MIC90” value [9, 21]?
The value was over 128 µg/mL.

And the “Modal MIC50” value ([9]; shown in µM)?
The value was over 51.7 µM.

And the “Modal MIC90” value ([9]; shown in µM)?
Its value is over 51.7 µM.

What about the “Modal MIC50” value [10, 20] of the same molecule?
The value was over 128 µg/mL.

And the “Modal MIC90” value [10, 21]?
Its value is over 128 µg/mL.

What about the “Modal MIC50” value ([10]; shown in µM) of the same molecule?
The value was over 51.7 µM.

What about the “Modal MIC90” value ([10]; shown in µM) of the same molecule?
Its value is over 51.7 µM.

What about the “Modal MIC50” value [11, 20] of the same molecule?
The value was over 128 µg/mL.

And the “Modal MIC90” value [11, 21]?
Its value is over 128 µg/mL.

What about the “Modal MIC50” value ([11]; shown in µM) of the same molecule?
The value was over 51.7 µM.

And the “Modal MIC90” value ([11]; shown in µM)?
The value was over 51.7 µM.

And the “Modal MIC50” value [12, 20]?
The value was over 128 µg/mL.

And the “Modal MIC90” value [12, 21]?
The value was over 128 µg/mL.

And the “Modal MIC50” value ([12]; shown in µM)?
The value was over 51.7 µM.

And the “Modal MIC90” value ([12]; shown in µM)?
Its value is over 51.7 µM.

And the “Modal MIC” value [13, 22]?
Its value is over 128 µg/mL.

And the “Modal MIC” value ([13]; shown in µM)?
Its value is over 51.7 µM.

And the “Modal MIC” value [14, 17]?
Its value is over 128 µg/mL.

What about the “Modal MIC” value ([14]; shown in µM) of the same molecule?
The value was over 51.7 µM.

And the “Modal MIC” value [15, 17]?
Its value is over 128 µg/mL.

What about the “Modal MIC” value ([15]; shown in µM) of the same molecule?
Its value is over 51.7 µM.

What about the “Modal MIC” value [16, 17] of the same molecule?
The value was over 128 µg/mL.

What about the “Modal MIC” value ([16]; shown in µM) of the same molecule?
The value was over 51.7 µM.
